Assay [1] has as its system HepG2 cells. Put plainly: cells. Type of assay: cell-based, human. The conditions noted are these: read-out: Hepatocyte counterscreen. (In general: A counterscreen serves to expose hits that act by an unwanted route or on another target.)
In assay [2] the test system is P. falciparum TM90C2B (C2B isolates, Y268S cytochrome b). Put plainly: Radio-labeled hypoxanthine growth assay, atovaquone-resistant C2B isolates. Type of assay: cell-based, Plasmodium falciparum.
Assay [3] relates to P. berghei liver stages. Put plainly: microbe, parasite or virus in culture. The note with it: for Selectivity index: IC50 against hepatocytes divided by IC50 for P. berghei liver stage development. Type of assay: cell-based, Plasmodium berghei.
The test system of assay [4] is cytochrome bc1 complex, L275F yeast cytochrome b mutant. Type of assay: biochemical, Saccharomyces cerevisiae. The note with it: IC50 against L275F mutant enzyme divided by IC50 of wild-type enzyme.
The subject of assay [5] is cytochrome bc1 complex, M139L yeast cytochrome b mutant. Type of assay: biochemical, Saccharomyces cerevisiae. The note with it: IC50 against M139L mutant enzyme divided by IC50 of wild-type enzyme.
For assay [6], the target named is cytochrome bc1 complex, Y279S yeast cytochrome b mutant (Saccharomyces cerevisiae, UniProt P00163+P08067, Y279S). Type of assay: biochemical.

Where two headings read alike, the source gives them in different places.

For `Cc1cccc2c1C(=O)C(O)=C(CC(C)CCCCCC(F)(F)F)C2=O` (stereo not shown) [NQ3, 2-OH-3-(2-methyl-trifluorooctyl)-8-methyl-naphthoquinone], the IC50 in assay [1] (MTT, HepG2 cells alone, 48 h) was > 54.3 µM.
As to `O=C1C(O)=C([C@H]2CC[C@H](c3ccc(Cl)cc3)CC2)C(=O)c2ccccc21` [Atovaquone, reference compound], the IC50 in assay [2] was 6.6 to 7.1 µM; in assay [3] (Plasmodium berghei, HepG2, 48 h, read-out: IC50 against P. berghei), 0.0197 µM; in assay [1] (Homo sapiens, HepG2, 48 h) it was 38.4 µM.
Consider `CCCCCCC(C)CC1=C(O)C(=O)c2ccccc2C1=O` (stereo not shown) [S-10576, reference compound], for which, in assay [1] (MTT, HepG2 cells alone, 48 h), the IC50 is > 66.6 µM.
On to `CC(CCCCCC(F)(F)F)CC1=C(O)C(=O)c2ccccc2C1=O` (stereo not shown) [NQ1, 2-OH-3-(2-methyl-trifluorooctyl)-naphthoquinone], for which, in assay [3], the Selectivity index came to 399. The IC50 in assay [1] (MTT, HepG2 cells alone, 48 h) is 6.83 µM. The Relative efficacy in assay [4] and in assay [5] was < 1.0 in each case.
As for `CCCCCCC(C)CC1=C(O)C(=O)c2c(C)cccc2C1=O` (stereo not shown) [NQ2, 2-OH-3-(2-methyl-octyl)-8-methyl-naphthoquinone], the Selectivity index in assay [3] amounted to 10.1. The IC50 in assay [1] (MTT, HepG2 cells alone, 48 h) was 2.48 µM. The Relative efficacy in assay [6] (IC50 against Y279S mutant enzyme divided by IC50 of wild-type enzyme) was found to be 0.37. The “Extent of inhibition of Y279S enzyme activity” value in assay [6] (at 500 nM, biphasic titration) is recorded as “did not reach complete inhibition”.

The values above are taken from paper PMC5054302 (Molecular and biochemical parasitology, 2011).
